Our source for the MIC values is ChEMBL document CHEMBL6182843, “Actinomycetes: Treasure trove for discovering novel antibiotic candidates” (2025).

Each structure is given as a SMILES string. Values after ≈ are worked out from the molar mass of the structure shown.

What all share (assay type): functional
The subject of assay [1] is Staphylococcus aureus. As to the kind of experiment: Antibacterial activity against methicillin-resistant Staphylococcus aureus.
In assay [2] the test system is Escherichia coli. As to the kind of experiment: Antibacterial activity against Escherichia coli.
Assay [3] concerns Bacillus subtilis. The experiment in a line: Antibacterial activity against Bacillus subtilis.
Assay [4] has as its system Staphylococcus aureus. The experiment in a line: Antibacterial activity against Staphylococcus aureus.

In the case of `C=CC(C)(C)ON(CCCCCCCCCCCCc1nc(CCCNC(=N)N)c(OC)nc1CCCNC(=N)N)C(=N)N`, the minimal inhibitory concentration (MIC) in assay [1] and in assay [2] was 1 µg/mL in each case.
For the compound `C=CC(C)(C)ON(CCCCCCCCCCCC(O)c1nc(CCCNC(=N)N)c(OC)nc1CCCNC(=N)N)C(=N)N` (stereo not drawn), the MIC in assay [1] was determined as 0.8 µg/mL; in assay [2], 1.5 µg/mL.
With `COC(=O)CCSC1=C(c2ccc(OC)cc2)C(O)C(OC)=C(c2ccc(OC)cc2)C1=O` (stereo not drawn), the MIC in assay [1] is 12.5 µM.
As for `COC(=O)/C(C)=C/CC[C@H](OC)[C@@H](OC(N)=O)/C(C)=C/[C@H](C)[C@@H](O)[C@H](C[C@H](C)CC1=C(OC)C(=O)C2=C(NC(=O)[C@@H](C)S2)C1=O)OC`, the minimum inhibitory concentration (MIC) in assay [3] and in assay [4] was 64 µg/mL (≈ 94 µM) throughout.
Consider `O=C1c2ccc3cc([C@@H](O)CO)cc(O)c3c2C(=O)c2cccc(O)c21`, for which the MIC in assay [3] worked out at 0.78 µg/mL (≈ 2.23 µM); in assay [1] it was 0.39 µg/mL; in assay [2], 1.56 µg/mL.
For `C[C@H]1[C@H](NC(=O)/C(=N\OC(C)(C)C(=O)O)c2csc(N)n2)C(=O)N1S(=O)(=O)O` [AZTREONAM], the MIC in assay [1] and in assay [2] was 0.25 µg/mL each time.
In the case of `CSc1c(C(C)C)c(=O)c2cc(O)c3c(=O)c4c(O)cccc4c(=O)c3c2c1=O`, inhibition of growth in assay [1] (MIC) required 3.12 µg/mL.
As to `CC[C@@H]1NC(=O)[C@@H](CC(C)C)NC(=O)C(NC(=O)[C@@H](CC(=O)C(CC(=O)C(CC(O)c2ccccc2)NC(=O)[C@@H](CCCN)NC(=O)CCNC(=O)/C=C\C=C\C(C)C)C(O)CC(=O)O)Cc2ccc(O[C@@H]3OC[C@H](O)[C@H](O)[C@H]3O)cc2)C(C)NC(=O)[C@@H]2CCCN2C(=O)[C@H](C)NC(=O)[C@H](CC(=O)c2ccc(Cl)cc2N)NC(=O)CNC(=O)[C@H](CO)NC(=O)CNC1=O` (stereo partly drawn), the results for the MIC in assay [4] and in assay [2] were 0.5 µg/mL (≈ 0.275 µM) and greater than 64 µg/mL, respectively.
Take `C=CC(C)(C)ON(CCCCCCC(O)CCCCCc1nc(CCCNC(=N)NCC=C(C)C)c(OC)nc1CCCNC(=N)NCC=C(C)C)C(=N)N` (stereo not drawn): the minimal inhibitory concentration (MIC) in assay [1] and in assay [2] was 1 µg/mL each time.
For `C=CC(C)(C)ON(CCCCCCC(O)CCCCC(O)c1nc(CCCNC(=N)NCC=C(C)C)c(OC)nc1C(O)CCNC(=N)NCC=C(C)C)C(=N)N` (stereo not drawn), the minimal inhibitory concentration (MIC) in assay [1] and in assay [2] was 2 µg/mL each time.
The compound `CC(=O)NC(CSc1c(C(C)C)c(=O)c2cc(O)c3c(=O)c4c(O)cccc4c(=O)c3c2c1=O)C(=O)O` (stereo not drawn) showed an MIC in assay [1] of 0.195 µg/mL.
As to `CC[C@@H]1NC(=O)[C@@H](CC(C)C)NC(=O)C(NC(=O)[C@@H](CC(=O)C(CC(=O)C(CC(O)c2ccccc2)NC(=O)[C@@H](CCCNC(=O)CCN)NC(=O)CCNC(=O)/C=C\C=C\C(C)C)C(O)CC(=O)O)Cc2ccc(O[C@@H]3OC[C@H](O)[C@H](O)[C@H]3O)cc2)C(C)NC(=O)[C@@H]2CCCN2C(=O)[C@H](C)NC(=O)[C@H](CC(=O)c2ccc(Cl)cc2N)NC(=O)CNC(=O)[C@H](CO)NC(=O)CNC1=O` (stereo partly drawn), the figures for the MIC in assay [4] and in assay [2] were 1 µg/mL (≈ 0.53 µM) and greater than 64 µg/mL, respectively.
`CC(C)c1cc(=O)c2c(cc(O)c3c(=O)c4c(O)c(Br)ccc4c(=O)c32)c1=O` gave an MIC in assay [1] of 0.098 µg/mL.
Consider `CCc1c(Cc2ccccc2)oc(=O)c(CC)c1O`, for which the minimal inhibitory concentration (MIC) in assay [3] is greater than 50 µg/mL; in assay [1], 12.5 µg/mL.
`C=CC(C)(C)ON(CCCCCCCCCCCC(O)c1nc(CCCNC(=N)NCC=C(C)C)c(OC)nc1C(O)CCNC(=N)NCC=C(C)C)C(=N)N` (stereo not drawn): the MIC in assay [1] and in assay [2] was 0.5 µg/mL each time.
Turning to `COC(=O)c1csc(-c2nc3c(-c4ccc(OC)cc4)c(OC)c(O)c(-c4ccc(OC)cc4)c3s2)n1`, the values for the MIC in assay [3], in assay [1] and in assay [2] were 0.8 µg/mL (≈ 1.5 µM), greater than 50 µg/mL and 0.8 µM, respectively.
Compound `O=C(N[C@H](CO)[C@H](O)c1ccc([N+](=O)[O-])cc1)C(Cl)Cl` [CHLORAMPHENICOL] gave a minimal inhibitory concentration (MIC) in assay [1] of 3.12 µg/mL.
With `C=CC(C)(C)ON(CCCCCCC(O)CCCCC(O)c1nc(CCCNC(=N)NCC=C(C)C)c(OC)nc1CCCNC(=N)NCC=C(C)C)C(=N)N` (stereo not drawn), the MIC in assay [1] worked out at 3 µg/mL; in assay [2], 4 µg/mL.
